Data published in PubChem BioAssay (NCI).
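A five-concentration, 48-hour dose response in 96-well plates underlies each endpoint, interpolated linearly between surrounding concentrations. GI50 = concentration required for 50% inhibition of growth. TGI: total growth inhibition.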

Columns and labels:
Test in all cases: NCI tumour cell line growth inhibition, 48 h
[1] = tested on: HOP-18 NSCLC
[2] = tested on: DLD-1 colon
[3] = tested on: RXF-631 renal
[4] = tested on: SNB-78 CNS
[5] = tested on: PC-3 prostate
[6] = tested on: DU-145 prostate
[7] = tested on: DMS 273 small cell lung
[8] = tested on: XF 498 CNS
[9] = tested on: MDA-N

Row | Structure (SMILES) | TGI [2] [µM] | TGI [4] [µM] | GI50 [5] [µM] | TGI [5] [µM] | GI50 [6] [µM] | TGI [6] [µM] | TGI [7] [µM] | also measured
1 | COC(=O)C(C(=O)C(=O)Nc1cccc(O)c1)c1nc2ccc(Cl)cc2[nH]c1=O (stereo not given) | > 100 | > 100 |  |  |  |  |  | TGI [1]: > 100 µM; TGI [3]: > 100 µM
2 | CCCc1cc(=O)oc2c(C(=O)CC(C)C)c(O)c(CC=C(C)C)c(O)c12 |  |  | 6.22 | 34.3 | 14.4 | > 50 |  | 
3 | CN(C)CC(C(=O)c1ccccc1)c1ccccc1 (stereo not given) |  |  | 4.12 | 16.9 | 1.34 | 3.15 |  | 
4 | O=C1NC(=NCC(CO)c2ccccc2)S/C1=C\c1ccc2ncccc2c1 (stereo not given) |  |  | > 25 | > 25 | 18.4 | > 25 |  | 
5 | CCOc1ccccc1NC(=O)C(=O)CC(=O)C1=C(C)Nc2ccccc2S1 | > 100 | > 100 |  |  |  |  | > 100 | TGI [8]: > 100 µM
6 | O=[N+]([O-])c1cccc(C2SCc3nc4ccccc4n32)c1 (stereo not given) | > 100 | > 100 |  |  |  |  | > 100 | TGI [1]: > 100 µM
7 | CC(C)c1cc(C(C)C)c(S(=O)(=O)NN)c(C(C)C)c1 | > 100 | > 100 |  |  |  |  | > 100 | TGI [1]: > 100 µM
8 | CCOP(=O)(CCP(=O)(OCC)OCC)OCC.C[CH2][Sn]([Cl])([Cl])[CH2]C | > 79 | 41.8 | > 100 | > 100 | > 100 | > 100 | > 100 | GI50 [7]: > 75.1 µM; GI50 [1]: 20.7 µM; TGI [1]: 35 µM; GI50 [2]: 27.7 µM; GI50 [9]: > 100 µM; TGI [9]: > 100 µM; GI50 [4]: 17.2 µM
9 | Nc1ccc2c(c1)C(=O)c1ccc(F)cc1-2 |  |  |  | > 100 |  | > 100 |  | TGI [9]: > 100 µM
10 | CSC1=Nc2c(c(C)c(-c3ccccc3)n2COC(CO)CO)C2=NC(=O)C(C)N12 (stereo not given) |  |  | > 100 | > 100 | > 100 | > 100 |  | 
11 | COc1cc(/C=C/C(=O)C(=Cc2ccc(F)c(F)c2)C(=O)/C=C/c2ccc(O)c(OC)c2)ccc1O |  |  | 2.49 | 8.31 | 2.1 | 5.27 |  | 
12 | Clc1ccc(-c2nc3c(-c4ccc(Cl)cc4)nc(-c4ccccc4)cn3c2-c2ccc(Cl)cc2)cc1 |  |  | > 50 | > 50 | > 50 | > 50 |  | 
13 | C/C=C/C=N/N(c1nnc(-c2ccccc2)c(-c2ccccc2)n1)S(=O)(=O)c1ccc(C)cc1 | 32.7 | 83.2 |  |  |  |  | 29.8 | TGI [1]: 27.4 µM; TGI [3]: 73.2 µM
14 | CC(=O)OC1(C#N)CC2OC1C1C2N1C(=O)c1ccccc1 (stereo not given) | > 100 | > 100 |  |  |  |  |  | TGI [8]: > 100 µM; TGI [3]: > 100 µM
15 | COc1cc(CNC(=O)/C=C/C=C/c2ccc3c(c2)OCO3)ccc1OCc1cn(-c2ccc(Cl)c(Cl)c2)nn1 |  |  | 1.48 | 3.47 | 1.45 | 3.16 |  | 
16 | C/C(CN1C(=O)c2ccccc2C1=O)=N\NS(=O)(=O)c1ccccc1 | > 100 | > 100 |  |  |  |  | > 100 | TGI [1]: > 100 µM; TGI [3]: > 100 µM
17 | CC/C(=N\Nc1nc2ccccc2n1C)c1ccccn1 |  |  | 0.0327 | 13.8 | 0.127 | 12.7 |  | 

Row | Structure (SMILES) | TGI [2] [µM] | TGI [4] [µM] | GI50 [5] [µM] | TGI [5] [µM] | GI50 [6] [µM] | TGI [6] [µM] | TGI [7] [µM] | also measured
18 | Cc1ccc(/C=C(\C#N)n2nnc3cc(Cl)c(Cl)cc32)cc1 |  |  |  |  | 3.27 | > 100 |  | 
19 | O=C(CCCn1c2c(sc3ncccc32)c(=O)n2nnc(-c3ccccc3)c12)NCCc1cnc[nH]1 |  |  | 10.9 | > 100 | 2.77 | 19.7 |  | 
20 | O=C1Cc2cc(CCn3ccnc3)c(Cl)cc2N1 |  |  | 35.6 | > 100 | 8.02 | > 100 |  | 
21 | CCN1CCC[C@H]1c1cc(O)c2c(c1OC)C[C@H]1C[C@H]3[C@H](N)C(=O)C(C(N)=O)=C(O)[C@@]3(O)C(=O)C1=C2O |  |  | 0.151 | 8.76 | 0.0664 | 2.16 |  | 
22 | CCCNc1nc(N(C)O)nc(N(C)O)n1 |  |  | 6.66 | > 100 | 1.46 | > 30.1 |  | 
23 | NC(=S)N/N=C(/CC(=O)c1ccc([N+](=O)[O-])cc1)C(=O)Nc1ncc([N+](=O)[O-])s1 | > 100 | > 100 |  |  |  |  |  | TGI [8]: > 100 µM; TGI [3]: > 100 µM
24 | CCCCCCN(CCCCCC)CCCNc1nccc2ccccc12 |  |  | 2 | 5.54 | 3.42 | 11.9 |  | 
25 | O=S(=O)(NCCNc1nccc(-c2c(-c3cccc(O)c3)nc3sccn23)n1)c1ccc(F)cc1 |  |  | 5.66 | 63.5 | 8.94 | 38.7 |  | 
26 | Cc1cc2c3ccccc3n(C)c2c2c1C(=O)c1ccccc1C2=O | 31.8 |  |  |  |  |  | 50.1 | TGI [8]: 35.7 µM; TGI [3]: 98.5 µM
27 | O=C(c1cc2ccccc2[nH]1)C(O)(c1cc2ccccc2[nH]1)c1cc2ccccc2[nH]1 | > 246 |  |  |  |  |  | > 246 | TGI [3]: > 246 µM
28 | Cc1c2ccccc2c(C)c2c3c(ccc12)C(=O)C=CC3=O | 40.8 | 38 |  |  |  |  | > 100 | TGI [8]: 31.6 µM; TGI [1]: > 69.3 µM
29 | Cc1cccc(CN(C)c2ccc(CO)c(Cl)c2)c1 |  |  | 22.2 | 96.3 | 30.8 | > 100 |  | 
30 | CC(=O)Nc1ccc2nncnc2c1 |  |  |  | > 100 |  | > 100 |  | TGI [9]: > 100 µM
31 | Fc1ccc(-c2nc(-c3nc4ccc(Cl)cc4[nH]3)cc3c2[nH]c2ccccc23)cc1 |  |  | 2.09 | 6.95 | 3.41 | 12 |  | 
32 | O=C(CC(=O)N1N=C(n2ccc3ccccc32)CC1c1ccccc1)Nc1cccc(Cl)c1 (stereo not given) | > 100 | > 100 |  |  |  |  | > 100 | TGI [1]: > 100 µM; TGI [3]: > 100 µM
33 | Cc1cc(C)nc(NS(=O)(=O)c2ccc(Nc3c4ccccc4nc4c(C(=O)NCCN(C)C)ccc(Cl)c34)cc2)n1 | 13.4 | 35.5 |  |  |  |  |  | TGI [8]: 17.3 µM
